Measured values: patent US9795695B2, “Process for the preparation of gadobenate dimeglumine complex in a solid form” (BRACCO IMAGING S.p.A., priority 2009, dated 2017)

Assay: dissolution of the solid form in water
Assay type: physicochemical
Details: for time for dissolution in water: room temperature

Row | water required to dissolve 1 g of product (per 1 g of product, room temperature (20° C. to 30° C.)) | time for dissolution in water | time for dissolution in water (listed as powdered gadobenate) | SMILES | ease of dissolution (in words) (aqueous solution)
1 | less than 1 mL | few seconds | less than one minute | CNC[C@H](O)[C@@H](O)[C@H](O)[C@H](O)CO.CNC[C@H](O)[C@@H](O)[C@H](O)[C@H](O)CO.O=C([O-])CN(CCN(CC(=O)[O-])CC(=O)O)CCN(CC(=O)O)C(COCc1ccccc1)C(=O)[O-].[Gd+3] (stereo not shown) [gadobenate dimeglumine] | –
2 | – | – | – | CNC[C@H](O)[C@@H](O)[C@H](O)[C@H](O)CO.CNC[C@H](O)[C@@H](O)[C@H](O)[C@H](O)CO.O=C([O-])CN(CCN(CC(=O)[O-])CC(=O)O)CCN(CC(=O)O)C(COCc1ccccc1)C(=O)[O-].[Gd+3] (stereo not shown) [Comparative Example 2a, gadobenate dimeglumine] | difficult to collect and, in case, to re-dissolve
